In patent US20110105623A1 (Biogenic Innovations, LLC, priority 2009, published 2011):

Key:
Bifidobacterium bifidum = assay: Probiotic growth in media supplemented with MSM; assay type: cell-based; design: unit not given here
Text: (§1) Plates were then counted. […] Data are presented in Cfu/mL.

[1] = system: Lactobacillus delbrueckii (Lactobacillus bulgaricus); assay: Probiotic growth in media supplemented with MSM; assay type: cell-based; design: unit not given here
Text: as §1

E. coli = assay: Log growth in Müller-Hinton media with or without NaCl; assay type: cell-based, Escherichia coli
Protocol: Standard Müller-Hinton media was compared to Müller-Hinton media supplemented with NaCl to the same level as the saline-based media of Example 4. […] After inoculation of each MSM-containing media type with 1.9×10^7 cfu/mL of E. coli, the cultures were incubated at 35° C. for seven days. Aliquots of each culture were taken at 24 and 48 hours, as well as 7 days.

[2] = system: Vero (African green monkey kidney) cells; assay: Toxicity control for Pre-Treatment test; assay type: cell-based
Text: B. Toxicity Control for Pre-Treatment Test.

Candida albicans = assay: USP <51> AET in cosmetic cream/composition; assay type: cell-based; conditions: for AET microorganism count: 48 hrs-28 days; for Log Reduction from Initial Microorganism Inoculum: 14, 28 Days

Substance: Methylsulfonylmethane [MSM]
- Growth of Bifidobacteruim bifidum (Bifidobacterium bifidum; 0.125% MSM, 0 h): 1.64
- Growth of Bifidobacteruim bifidum (Bifidobacterium bifidum; 0.125% MSM, 8 h): 1.73
- Growth of Bifidobacteruim bifidum (Bifidobacterium bifidum; 0.125% MSM, 16 h): 6.55
- Growth of Bifidobacteruim bifidum (Bifidobacterium bifidum; 0.125% MSM, 24 h): 2.70
- Growth of Bifidobacteruim bifidum (Bifidobacterium bifidum; 0.125% MSM, 32 h): 3.37
- Growth of Bifidobacteruim bifidum (Bifidobacterium bifidum; 0.125% MSM, 40 h): 4.19
- Growth of Bifidobacteruim bifidum (Bifidobacterium bifidum; 0.125% MSM, 48 h): 6.41
- Growth of Bifidobacteruim bifidum (Bifidobacterium bifidum; 0.125% MSM, 56 h): 9.97
- Growth of Bifidobacteruim bifidum (Bifidobacterium bifidum; 0.125% MSM, 64 h): 11.34
- Growth of Bifidobacteruim bifidum (Bifidobacterium bifidum; 0.125% MSM, 72 h): 10.00
- Growth of Bifidobacteruim bifidum (Bifidobacterium bifidum; 0.2% MSM, 0 h): 1.82
- Growth of Bifidobacteruim bifidum (Bifidobacterium bifidum; 0.2% MSM, 8 h): 2.08
- Growth of Bifidobacteruim bifidum (Bifidobacterium bifidum; 0.2% MSM, 16 h): 5.22
- Growth of Bifidobacteruim bifidum (Bifidobacterium bifidum; 0.2% MSM, 24 h): 6.15
- Growth of Bifidobacteruim bifidum (Bifidobacterium bifidum; 0.2% MSM, 32 h): 5.03
- Growth of Bifidobacteruim bifidum (Bifidobacterium bifidum; 0.2% MSM, 40 h): 8.14
- Growth of Bifidobacteruim bifidum (Bifidobacterium bifidum; 0.2% MSM, 48 h): 8.55
- Growth of Bifidobacteruim bifidum (Bifidobacterium bifidum; 0.2% MSM, 56 h): 9.00
- Growth of Bifidobacteruim bifidum (Bifidobacterium bifidum; 0.2% MSM, 64 h): 10.19
- Growth of Bifidobacteruim bifidum (Bifidobacterium bifidum; 0.2% MSM, 72 h): 9.10
- Growth of Bifidobacteruim bifidum (Bifidobacterium bifidum; 0.50% MSM, 0 h): 1.85
- Growth of Bifidobacteruim bifidum (Bifidobacterium bifidum; 0.50% MSM, 8 h): 1.99
- Growth of Bifidobacteruim bifidum (Bifidobacterium bifidum; 0.50% MSM, 16 h): 6.53
- Growth of Bifidobacteruim bifidum (Bifidobacterium bifidum; 0.50% MSM, 24 h): 3.14
- Growth of Bifidobacteruim bifidum (Bifidobacterium bifidum; 0.50% MSM, 32 h): 3.52
- Growth of Bifidobacteruim bifidum (Bifidobacterium bifidum; 0.50% MSM, 40 h): 4.62
- Growth of Bifidobacteruim bifidum (Bifidobacterium bifidum; 0.50% MSM, 48 h): 4.51
- Growth of Bifidobacteruim bifidum (Bifidobacterium bifidum; 0.50% MSM, 56 h): 6.05
- Growth of Bifidobacteruim bifidum (Bifidobacterium bifidum; 0.50% MSM, 64 h): 9.55
- Growth of Bifidobacteruim bifidum (Bifidobacterium bifidum; 0.50% MSM, 72 h): 7.52
- Growth of Bifidobacteruim bifidum (Bifidobacterium bifidum; 1% MSM, 0 h): 1.48
- Growth of Bifidobacteruim bifidum (Bifidobacterium bifidum; 1% MSM, 8 h): 1.70
- Growth of Bifidobacteruim bifidum (Bifidobacterium bifidum; 1% MSM, 16 h): 6.81
- Growth of Bifidobacteruim bifidum (Bifidobacterium bifidum; 1% MSM, 24 h): 2.75
- Growth of Bifidobacteruim bifidum (Bifidobacterium bifidum; 1% MSM, 32 h): 3.37
- Growth of Bifidobacteruim bifidum (Bifidobacterium bifidum; 1% MSM, 40 h): 3.48
- Growth of Bifidobacteruim bifidum (Bifidobacterium bifidum; 1% MSM, 48 h): 3.90
- Growth of Bifidobacteruim bifidum (Bifidobacterium bifidum; 1% MSM, 56 h): 8.32
- Growth of Bifidobacteruim bifidum (Bifidobacterium bifidum; 1% MSM, 64 h): 8.02
- Growth of Bifidobacteruim bifidum (Bifidobacterium bifidum; 1% MSM, 72 h): 9.52
- Growth of Bifidobacteruim bifidum (Bifidobacterium bifidum; 5% MSM, 0 h): 1.00
- Growth of Bifidobacteruim bifidum (Bifidobacterium bifidum; 5% MSM, 8 h): 2.29
- Growth of Bifidobacteruim bifidum (Bifidobacterium bifidum; 5% MSM, 16 h): 6.71
- Growth of Bifidobacteruim bifidum (Bifidobacterium bifidum; 5% MSM, 24 h): 5.72
- Growth of Bifidobacteruim bifidum (Bifidobacterium bifidum; 5% MSM, 32 h): 10.32
- Growth of Bifidobacteruim bifidum (Bifidobacterium bifidum; 5% MSM, 40 h): 12.02
- Growth of Bifidobacteruim bifidum (Bifidobacterium bifidum; 5% MSM, 48 h): 10.54
- Growth of Bifidobacteruim bifidum (Bifidobacterium bifidum; 5% MSM, 56 h): 10.92
- Growth of Bifidobacteruim bifidum (Bifidobacterium bifidum; 5% MSM, 64 h): 12.04
- Growth of Bifidobacteruim bifidum (Bifidobacterium bifidum; 5% MSM, 72 h): 12.43
- Growth of Bifidobacteruim bifidum (Bifidobacterium bifidum; […] MSM, 0 h): 1.64
- Growth of Bifidobacteruim bifidum (Bifidobacterium bifidum; […] MSM, 8 h): 1.60
- Growth of Bifidobacteruim bifidum (Bifidobacterium bifidum; […] MSM, 16 h): 6.21
- Growth of Bifidobacteruim bifidum (Bifidobacterium bifidum; […] MSM, 24 h): 2.52
- Growth of Bifidobacteruim bifidum (Bifidobacterium bifidum; […] MSM, 32 h): 3.37
- Growth of Bifidobacteruim bifidum (Bifidobacterium bifidum; […] MSM, 40 h): 3.52
- Growth of Bifidobacteruim bifidum (Bifidobacterium bifidum; […] MSM, 48 h): 3.95
- Growth of Bifidobacteruim bifidum (Bifidobacterium bifidum; […] MSM, 56 h): 8.35
- Growth of Bifidobacteruim bifidum (Bifidobacterium bifidum; […] MSM, 64 h): 8.30
- Growth of Bifidobacteruim bifidum (Bifidobacterium bifidum; […] MSM, 72 h): 10.12
- Growth of Lactobacillus bulgaricus ([1]; 0.125% MSM, 0 h): 2.29
- Growth of Lactobacillus bulgaricus ([1]; 0.125% MSM, 8 h): 4.15
- Growth of Lactobacillus bulgaricus ([1]; 0.125% MSM, 16 h): 8.22
- Growth of Lactobacillus bulgaricus ([1]; 0.125% MSM, 24 h): 9.04
- Growth of Lactobacillus bulgaricus ([1]; 0.125% MSM, 32 h): 8.55
- Growth of Lactobacillus bulgaricus ([1]; 0.125% MSM, 40 h): 9.29
- Growth of Lactobacillus bulgaricus ([1]; 0.125% MSM, 48 h): 10.94
- Growth of Lactobacillus bulgaricus ([1]; 0.125% MSM, 56 h): 8.00
- Growth of Lactobacillus bulgaricus ([1]; 0.125% MSM, 64 h): 8.59
- Growth of Lactobacillus bulgaricus ([1]; 0.125% MSM, 72 h): 6.74
- Growth of Lactobacillus bulgaricus ([1]; 0.2% MSM, 0 h): 2.25
- Growth of Lactobacillus bulgaricus ([1]; 0.2% MSM, 8 h): 4.08
- Growth of Lactobacillus bulgaricus ([1]; 0.2% MSM, 16 h): 8.34
- Growth of Lactobacillus bulgaricus ([1]; 0.2% MSM, 24 h): 9.10
- Growth of Lactobacillus bulgaricus ([1]; 0.2% MSM, 32 h): 9.60
- Growth of Lactobacillus bulgaricus ([1]; 0.2% MSM, 40 h): 9.11
- Growth of Lactobacillus bulgaricus ([1]; 0.2% MSM, 48 h): 11.07
- Growth of Lactobacillus bulgaricus ([1]; 0.2% MSM, 56 h): 8.79
- Growth of Lactobacillus bulgaricus ([1]; 0.2% MSM, 64 h): 8.79
- Growth of Lactobacillus bulgaricus ([1]; 0.2% MSM, 72 h): 6.72
- Growth of Lactobacillus bulgaricus ([1]; 0.50% MSM, 0 h): 2.23
- Growth of Lactobacillus bulgaricus ([1]; 0.50% MSM, 8 h): 4.42
- Growth of Lactobacillus bulgaricus ([1]; 0.50% MSM, 16 h): 8.28
- Growth of Lactobacillus bulgaricus ([1]; 0.50% MSM, 24 h): 9.05
- Growth of Lactobacillus bulgaricus ([1]; 0.50% MSM, 32 h): 9.54
- Growth of Lactobacillus bulgaricus ([1]; 0.50% MSM, 40 h): 9.40
- Growth of Lactobacillus bulgaricus ([1]; 0.50% MSM, 48 h): 10.82
- Growth of Lactobacillus bulgaricus ([1]; 0.50% MSM, 56 h): 9.14
- Growth of Lactobacillus bulgaricus ([1]; 0.50% MSM, 64 h): 8.80
- Growth of Lactobacillus bulgaricus ([1]; 0.50% MSM, 72 h): 6.72
- Growth of Lactobacillus bulgaricus ([1]; 1% MSM, 0 h): 2.29
- Growth of Lactobacillus bulgaricus ([1]; 1% MSM, 8 h): 4.83
- Growth of Lactobacillus bulgaricus ([1]; 1% MSM, 16 h): 8.36
- Growth of Lactobacillus bulgaricus ([1]; 1% MSM, 24 h): 9.03
- Growth of Lactobacillus bulgaricus ([1]; 1% MSM, 32 h): 9.31
- Growth of Lactobacillus bulgaricus ([1]; 1% MSM, 40 h): 9.34
- Growth of Lactobacillus bulgaricus ([1]; 1% MSM, 48 h): 11.23
- Growth of Lactobacillus bulgaricus ([1]; 1% MSM, 56 h): 8.11
- Growth of Lactobacillus bulgaricus ([1]; 1% MSM, 64 h): 6.50
- Growth of Lactobacillus bulgaricus ([1]; 1% MSM, 72 h): 6.45
- Growth of Lactobacillus bulgaricus ([1]; 5% MSM, 0 h): 2.19
- Growth of Lactobacillus bulgaricus ([1]; 5% MSM, 8 h): 3.28
- Growth of Lactobacillus bulgaricus ([1]; 5% MSM, 16 h): 7.39
- Growth of Lactobacillus bulgaricus ([1]; 5% MSM, 24 h): 8.50
- Growth of Lactobacillus bulgaricus ([1]; 5% MSM, 32 h): 9.29
- Growth of Lactobacillus bulgaricus ([1]; 5% MSM, 40 h): 9.37
- Growth of Lactobacillus bulgaricus ([1]; 5% MSM, 48 h): 10.92
- Growth of Lactobacillus bulgaricus ([1]; 5% MSM, 56 h): 10.07
- Growth of Lactobacillus bulgaricus ([1]; 5% MSM, 64 h): 10.96
- Growth of Lactobacillus bulgaricus ([1]; 5% MSM, 72 h): 8.62
- Growth of Lactobacillus bulgaricus ([1]; […] MSM, 0 h): 2.26
- Growth of Lactobacillus bulgaricus ([1]; […] MSM, 8 h): 4.57
- Growth of Lactobacillus bulgaricus ([1]; […] MSM, 16 h): 8.09
- Growth of Lactobacillus bulgaricus ([1]; […] MSM, 24 h): 9.01
- Growth of Lactobacillus bulgaricus ([1]; […] MSM, 32 h): 9.15
- Growth of Lactobacillus bulgaricus ([1]; […] MSM, 40 h): 9.27
- Growth of Lactobacillus bulgaricus ([1]; […] MSM, 48 h): 11.37
- Growth of Lactobacillus bulgaricus ([1]; […] MSM, 56 h): 8.23
- Growth of Lactobacillus bulgaricus ([1]; […] MSM, 64 h): 8.75
- Growth of Lactobacillus bulgaricus ([1]; […] MSM, 72 h): 6.51
- log reduction from the initial inoculum (E. coli; 24 hours, all media, MSM greater than 13%): approximately 1 log
- reduced E. coli growth by (E. coli; 48 hours, MSM greater than 13%): 1-2 logs
- log reduction in E. coli (E. coli; 7 days, FMHS, 12% MSM): 3 log
- Test Product Cytotoxicity (CPE) ([2]; 0.5%): 00
- Test Product Cytotoxicity (CPE) ([2]; 1%): 00
- Test Product Cytotoxicity (CPE) ([2]; 2%): 00
- Test Product Cytotoxicity (CPE) ([2]; 3%): 00
- Test Product Cytotoxicity (CPE) ([2]; 4%): 00
- Test Product Cytotoxicity (CPE) ([2]; 5%): 00
- Test Product Cytotoxicity (CPE) ([2]; 6%): 00
- Test Product Cytotoxicity (CPE) ([2]; 7%): 00
- AET microorganism count (Candida albicans; 10% MSM in Preservative Free Cosmetic Composition #2, 48 hours after inoculation): 9.0 × 10^2
- AET microorganism count (Candida albicans; 10% MSM in Preservative Free Cosmetic Composition #2, 7 days after inoculation): <10
- AET microorganism count (Candida albicans; 10% MSM in cosmetic cream without preservative): <10
- Log Reduction from Initial Microorganism Inoculum (Candida albicans; 10% MSM in preservative-free jojoba cream): 4.3 log
- Log Reduction from Initial Microorganism Inoculum (Candida albicans; 10% MSM, Composition #1): 5.3 log
- Log Reduction from Initial Microorganism Inoculum (Candida albicans; 10% MSM, Composition #2): 5.3 log
